Assay results reported in US6160008A, “Pharmaceutical compositions comprising S-alkylisothiouronium derivatives” (priority 1996, dated 2000).
“Also recorded” adds a separate entry of the source.

Experiments:
arterial blood pressure = assay: Influence of single intravenous injection on arterial blood pressure, heart rate and respiratory rate in anesthetized cats (Table 1, FIGS. 1-10); type: in vivo; settings: 5 mg/kg i.v.
Procedure: Experiments were performed on 52 anesthetized (intraperitoneally with 45 mg/kg of sodium pentobarbital) cats of both genders with body mass of 2.8-4.2 kg. Arterial pressure was measured by a mercury pressure gauge; measurements were also performed by ECG. Simultaneously, the respiratory frequency was registered. The hypertensive effect was determined as percent increase relative to the initial level of systolic arterial pressure (SAP). The duration of observation was 1-3 hours; the heart rate (HR) was calculated on the basis of ECG.

[1] = system: system hemodynamic indices; assay: System hemodynamic indices in narcotised cats (Table 2); type: in vivo
Procedure: An experimental study of the S-ethylisothiouronium diethylphosphate effect on the indices of system hemodynamics were performed on 8 narcotised cats with a body mass of 2-4 kg. Urethane (30% solution intraperitoneally, 1-1.2 g/kg) was used for narcostisation. To determine the period of maximum efficiency and duration of the preparation effect, the major parameters of the blood circulation were determined before its introduction (initial data) and on the 2nd, 15th, 30th, and 60th minute after the introduction, at a dose of 5 mg/kg.
The system hemodynamics was estimated on the basis of the following indices: arterial blood pressure (AP), heart rate (HR), minute volume of blood circulation (MVC), stroke volume of the heart (SV), total vascular peripheral resistance (PR), work of the left ventricle (Alv).
The arterial pressure was measured in the left […] of cats by a mercury pressure gauge. To prevent blood clotting, 0.2-0.3 ml (1000-1500 units) of heparin was injected intravenously. Heart rate was calculated according to the R--R interval of electrocardiogram. Recording was performed through two-channel electrocardiograph. MVC was calculated according to Ramirez A. A. et al. (1956). SV, ARV, and PR were calculated from the data on MVC, AP, central blood volume, and HR using C. G Wiggers formular (1947). Quantitative material obtained in the experiments was subjected to statistical analysis by the Student t-test.

[2] = system: acute arterial hypotension, caused by the hexamethonium administration; assay: Acute arterial hypotension caused by hexamethonium (Table 5); type: in vivo, cats; settings: for AP / HF: 5 mg/kg i.v. after hexamethonium 10 mg/kg
Procedure: The influence of S-ethylisothiouronium diethylphosphate on the background of arterial hypotension caused by a known ganglion blocker-hexamethonium has been studied in cats. Hexamethonium was injected intra- venously at a dose of 10 mg/kg. Vagus and schiatic nerve stimulation was carried out by electrical pulsator with the above-threshold rectangular pulse current having a duration of 1 msec, irritation time of 10 sec, and frequency of 20 pulses/sec (peripheral section of the vagus nerve), and frequency of 300 pulses/sec (central end of the schiatic nerve).

[3] = system: cardiovascular system of dogs; assay: Effect on the cardiovascular system of dogs (FIGS. 11-13); type: in vivo; settings: i.v.
Procedure: In the following tests, the effect of S-ethylisothiouronium diethylphosphate was studied on the cardiovascular system of dogs. AP was measured by two methods: it was registered on the tail artery by means of a piezosensor (Ugo Bazile pressure gauge) and in the thigh artery by a catheter filled with heparin. Electrocardiogram was registered in three standard branches.
S-ethylisothiouronium diethylphosphate was injected at doses of 1 mg/kg (n=5), 5 mg/kg (n=18), and 100 mg/kg (n=8). […] The development of a bradycardiac effect was noted which started already on the first minutes after the injection, reaching on the average 25-30% of the initial level. Maximal bradycardiac value was observed on the 30th-40th minutes after the experiment started and maintained till the 60th minute of the observation.
Due to this fact the study was carried out separately for normotonics and hypotonics.

[4] = Lung coefficient under hyperbaric oxygen (3 atm); type: in vivo, mice and rats; settings: for Lung coefficient (lung mass/body mass X100): hyperbaric oxygen
Procedure: Animals were exposed to oxygen under increased pressure in a hyperbaric chamber <<Mana-2≤≤ for treatment of infants above 1 year, which was adjusted for the experiments on animals. The hyperbaric chamber design permitted to create excessive pressure up to 3 atm and to observe animal behavior from outside.
The experiments were performed on males of F1 (CBAx57B1) mice line and on males of Wistar rat line. Animals were placed in the hyperbaric chamber in plastic boxes and the atmospheric air was replaced by oxygen. The period of compression-decompression was 10 minutes. The exposure of the animals to an oxygen pressure of 3 atm during a period of 2 hours caused only some increase in their motion activity. Further staying of rats and mice in those conditions led to a decrease in the motion activity, to asphyxia with short periods of excitement and cramps. The death of some animals was registered after 2.5-3 hours, 50% after 4 hours, and 75% of mice and 100% of rats were dead after 5 hours.
When the influence of Difetur and Etyron was studied, the animals were exposed to an oxygen pressure of 3 atm during 5 hours if not otherwise specified. Preparations were injected 5-10 minutes before the session.
After the session the dead animals were autopsied, their lungs were removed, and the index <<lung mass in gr./body mass in gr. X100>> (i.e. lung coefficient) was defined.

[5] = listed as S-ethylisothiuronium diethylphosphate
[6] = 5 mg/kg i.v., 2 min after injection
[7] = 5 mg/kg i.v., 15 min after injection
[8] = 5 mg/kg i.v., 30 min after injection
[9] = 5 mg/kg i.v., 60 min after injection

In the case of `CCSC(=N)N` [S-ethylisothiouronium diethylphosphate], the “Hypertensive activity, % (increase relative to the initial level of SAP)” value (arterial blood pressure) is reported as 40%, the “Hypertensive effect in words” value (arterial blood pressure) is reported as “one of the most active compounds; also recorded: most active compound” and the “RR (influence on respiratory rate)” value (arterial blood pressure) is reported as “increases RR”. For the same molecule, the “Time to achieve maximum effect” value (arterial blood pressure) was 2 min, the “Hypertensive activity (increase of SAP)” value (arterial blood pressure; given as "> SAP by", listed as S-ethylisothiuronium diethylphosphate) was 40 mm Hg and the Duration of effect (arterial blood pressure; [5]) was 1 to 1.5 h. For the same molecule, the “Hypertensive activity, % (increase relative to the initial level of SAP)” value (arterial blood pressure; [5]) was 40%, the “Influence on HR” value (arterial blood pressure; [5]) was “Bradycardia” and the “RR (influence on respiratory rate)” value (arterial blood pressure; [5]) was “Increases”. The “AP increase relative to the initial level” value ([1]; 5 mg/kg i.v., 2nd minute) was 41%, the “Alv above the initial value” ([1]; 5 mg/kg i.v., 2nd minute) was 89% and the MVC increase ([1]; 5 mg/kg i.v., 2nd minute) was 7%. The “PR, % of the initial level” value ([1]; 5 mg/kg i.v., 2nd minute) was 135%, the “Alv above the initial value” ([1]; 5 mg/kg i.v., 15th minute) was 22% and the MVC decrease ([1]; 5 mg/kg i.v., 15th minute) was 11%. For the same molecule, the MVC decrease ([1]; 5 mg/kg i.v., 30th minute) was 22%, the “AP above the initial level” value ([1]; 5 mg/kg i.v., 60th minute) was 11% and the “PR above the initial value” ([1]; 5 mg/kg i.v., 60th minute) was 58%. It also gave an AP [1, 6] of 168 ± 9.9 mm Hg, an Alv [1, 6] of 486.2 ± 136.8 g·cm and an HF [1, 6] of 166 ± 17.9 per min. The MVC [1, 6] was 101.9 ± 6.8 mL/min, the PR [1, 6] was 138.6 ± 10.5 10^3 . din . c . cm^-5 /kg and the Stroke volume [1, 6] was 2.14 ± 0.45 mL. It also gave an AP [1, 7] of 158 ± 8.1 mm Hg, an Alv [1, 7] of 317.1 ± 59.4 g·cm and an HF [1, 7] of 178 ± 15.4 per min. For the same molecule, the MVC [1, 7] was 84.3 ± 5.7 mL/min, the PR [1, 7] was 153.8 ± 7.1 10^3 . din . c . cm^-5 /kg and the Stroke volume [1, 7] was 1.46 ± 0.25 mL. It also gave an AP [1, 8] of 152 ± 8.4 mm Hg, an Alv [1, 8] of 251.9 ± 50.3 g·cm and an HF [1, 8] of 192 ± 11.9 per min. The MVC [1, 8] was 74.1 ± 5.2 mL/min, the PR [1, 8] was 168.5 ± 13.0 10^3 . din . c . cm^-5 /kg and the Stroke volume [1, 8] was 1.23 ± 0.21 mL. For the same molecule, the AP [1, 9] was 132 ± 9.3 mm Hg, the Alv [1, 9] was 211.3 ± 56.1 g·cm and the HF [1, 9] was 188 ± 10.4 per min. The MVC [1, 9] was 67.6 ± 8.4 mL/min, the PR [1, 9] was 161.5 ± 14.1 10^3 . din . c . cm^-5 /kg and the Stroke volume [1, 9] was 1.13 ± 0.26 mL. For the same molecule, the “Duration of hypertensive effect” value ([1]; 5 mg/kg i.v., single injection) was “up to 1 hour”, the “Effect on system hemodynamics in words” value ([1]; cats) was “on the 30th minute it returned to the initial level” and the AP ([2]; 2 min) was 152.0 ± 4.6 mm Hg. For the same molecule, the HF ([2]; 2 min) was 120.0 ± 12.0 per min, the AP ([2]; 15 min) was 147.0 ± 7.8 mm Hg and the HF ([2]; 15 min) was 105.6 ± 11.6 per min. It also gave an AP ([2]; 30 min) of 146.8 ± 4.8 mm Hg, an HF ([2]; 30 min) of 109.2 ± 11.1 per min and an AP ([2]; 60 min) of 143.0 ± 7.2 mm Hg. For the same molecule, the HF ([2]; 60 min) was 108.0 ± 15.8 per min, the AP increase ([2]; 5 mg/kg i.v. after hexamethonium, 2nd minute) was 61 mm Hg and the “Effect under ganglion blockade in words” value ([2]; after hexamethonium) was “Respiratory rate did not change; also recorded: HR changed to the direction of bradycardia, however, those changes were not statistically significant; also recorded: ganglion blocking properties are completely retained; also recorded: quickly restores the AP level after the ganglion blocker caused hypotension and maintains it for a long time”. For the same molecule, the Electrocardiogram ([3]; all doses) was “did not reveal any pathological changes”, the “Bradycardiac effect, relative to the initial level” value ([3]; dogs) was 25-30% and the Optimal dose ([3]; dogs) was 5 to 10 mg/kg. The “Hypertensive effect in words” value ([3]; dogs, all doses) was “does not cause secondary hypotension; also recorded: greater in hypotensive than in normotensive animals; also recorded: pronounced hypertensive effect at all the doses used”, the “Hypertensive effect in words” value ([3]; dogs, all doses, listed as S-ethylisothiouroniumdiethylphosphate) was “the hypertensive reaction in dogs with low arterial pressure is stronger and more prolonged” and the “Lung coefficient (lung mass/body mass X100)” value ([4]; 5 mg/kg) was 0.95±0.09. The “Lung coefficient (lung mass/body mass X100)” value ([4]; 10 mg/kg) was 0.97±0.09, the “Lung coefficient (lung mass/body mass X100)” value ([4]; 20 mg/kg) was 0.88±0.08 and the “Lung protection in words” value ([4]; in vivo) was “considerable protective efficiency regarding the lung tissue”.
